Test results from paper PMC8544286, “Screening and Identification of a Novel Anti-tuberculosis Compound That Targets Deoxyuridine 5′-Triphosphate Nucleotidohydrolase” (Frontiers in Microbiology, 2021).
Values after ≈ are worked out from the molar mass of the structure shown. Like-named read-outs stand apart in the source and are kept apart here.

What was measured:
[1] = test system: extensive drug-resistant strain XDR-XZ06008; assay: microbe, parasite or virus in culture; assay type: cell-based; conditions: Mycobacterium tuberculosis, 168 h
[2] = biological target: Mt-P79A-dUTPase (Mycobacterium tuberculosis, UniProt P9WNS5, P79A); assay type: binding
[3] = test system: multidrug-resistant strain MDR-FJ05189; assay: microbe, parasite or virus in culture; assay type: cell-based; conditions: Mycobacterium tuberculosis, 168 h
[4] = test system: multidrug-resistant strain MDR-FJ05120; assay: microbe, parasite or virus in culture; assay type: cell-based; conditions: Mycobacterium tuberculosis, 168 h
[5] = test system: extensive drug-resistant strain XDR-FJ05195; assay: microbe, parasite or virus in culture; assay type: cell-based; conditions: Mycobacterium tuberculosis, 168 h
[6] = […], MABA, 7 days at 37°C, read-out: MIC

**Q.** Which results are given for `C=CCn1c(/C=C/c2ccccc2)nc2ccccc21` [F0414]?
**A.** MIC [1, 6]: 8 mg/L (≈ 30.7 µM); SPR binding to Mt-P79A-dUTPase [2]: much weaker affinity; MIC [3, 6]: 2 mg/L (≈ 7.68 µM); MIC [4, 6]: 8 mg/L (≈ 30.7 µM); MIC [5, 6]: 2 mg/L (≈ 7.68 µM)

**Q.** With `NNC(=O)c1ccncc1` [Isoniazid] as the compound, how does the MIC [1, 6] read?
**A.** Its MIC is greater than 256 mg/L.

**Q.** What about the MIC [3, 6] of the same compound?
**A.** Its MIC is less than 0.5 mg/L.

**Q.** What about the MIC [4, 6] of the same compound?
**A.** The MIC was 4 mg/L (≈ 29.2 µM).

**Q.** What about the MIC [5, 6] of the same compound?
**A.** The MIC was greater than 256 mg/L.

**Q.** With `CO[C@H]1/C=C/O[C@@]2(C)Oc3c(C)c(O)c4c(O)c(c(/C=N/N5CCN(C)CC5)c(O)c4c3C2=O)NC(=O)/C(C)=C\C=C\[C@H](C)[C@H](O)[C@@H](C)[C@@H](O)[C@@H](C)[C@H](OC(C)=O)[C@@H]1C` [Rifampicin] as the compound, how does the MIC [1] read?
**A.** The MIC was greater than 256 mg/L.

**Q.** What about the MIC [3] of the same compound?
**A.** The MIC was greater than 256 mg/L.

**Q.** What about the MIC [4] of the same compound?
**A.** The MIC was greater than 256 mg/L.

**Q.** And the MIC [5]?
**A.** The MIC was 4 mg/L (≈ 4.86 µM).
